Columns and labels:
Sunflower = assay: Greenhouse study for weed control, sunflower; assay type: in vivo; conditions: Glyphosate 0.375 lb/acre; AMS 17 lb/100 gal; NIS, AQ 284, AQ 268 […] v/v; INTERLOCK 4 fl oz/acre
Protocol: (§1) A greenhouse study was conducted to test the efficacy of the AQ 284 combination water conditioning adjuvant and drift reduction composition compared to the commercial standard (INTERLOCK). Greenhouse research was conducted with individual plants growing in 3×3×3 inch pots. Greenhouse treatments were applied with a track sprayer using an 8002 E single nozzle applying 20 gpa.

Wheat = assay: Greenhouse study for weed control, wheat; assay type: in vivo; conditions: Glyphosate 0.375 lb/acre; AMS 17 lb/100 gal; NIS, AQ 284, AQ 268 […] v/v; INTERLOCK 4 fl oz/acre
Protocol: as §1

Corn = assay: Greenhouse study for weed control, corn; assay type: in vivo; conditions: Glyphosate 0.375 lb/acre; AMS 17 lb/100 gal; NIS, AQ 284, AQ 268 […] v/v; INTERLOCK 4 fl oz/acre
Protocol: as §1

Corn, Sunflower, Wheat = assay: Greenhouse study for weed control, average of corn, sunflower and wheat; assay type: in vivo; conditions: Glyphosate 0.375 lb/acre; AMS 17 lb/100 gal; NIS, AQ 284, AQ 268 […] v/v; INTERLOCK 4 fl oz/acre
Protocol: as §1

[1] = Lecithin addition to sulfuric acid, urea sulfate and AQ 216 (lecithin stability); assay type: physicochemical; conditions: for Notes (result of lecithin addition): on addition
Text: Lecithin is known to be unstable in a sulfuric acid environment. […] For each reaction with urea sulfate and AQ 216, the urea sulfate was mixed thoroughly or AQ 216 was mixed thoroughly, before the addition of the lecithin composition.

[2] = lecithin composition AIRLINK 50 mL
[3] = lecithin composition LI 700 50 mL
[4] = lecithin composition LIBERATE 50 mL

| SMILES | Sunflower % Control 18 Days After Application (Sunflower) [%] | Wheat % Control 18 Days After Application (Wheat) [%] | Corn % Control 18 Days After Application (Corn) [%] | Average % Control 18 Days After Application (Corn, Sunflower, Wheat) [%] | reaction with lecithin compositions ([1]; 50 mL of each of the lecithin compositions, equivalent amount of sulfuric acid (3 mL)) | Time 1 hour [1, 2] | Time 12 Hours [1, 2] | Notes (result of lecithin addition) ([1]; lecithin composition AIRLINK 50 mL, 3 mL sulfuric acid or 6 mL urea sulfate / AQ 216) | Time 1 hour [1, 3] | Time 12 Hours [1, 3] | Notes (result of lecithin addition) [1, 3] | Time 1 hour [1, 4] | Time 12 Hours [1, 4] | Notes (result of lecithin addition) [1, 4] |
| --- | --- | --- | --- | --- | --- | --- | --- | --- | --- | --- | --- | --- | --- | --- |
| O=C(O)CNCP(=O)(O)O [Glyphosate, N-phosphonomethylglycine] | 15.0 | 15.0 | 10.0 | 13.3 |  |  |  |  |  |  |  |  |  |  |
| O=S(=O)(O)O [Sulfuric Acid] |  |  |  |  | forming a precipitate | More precipitate | More precipitate | Dark Precipitate | More precipitate | More precipitate | Dark Precipitate | More precipitate | More precipitate | Dark Precipitate |
